Series [1] is described as follows: Human liver microsome stability. The class given is in vitro ADME. The conditions noted are these: human liver microsomes, 1 μM test compound, 37° C.; CLint = k/P. (In general: Liver microsomes are a subcellular fraction often used to study metabolism.)
The conditions of series [2]: in vivo; cited from earlier work.

The source of these data is patent US10532991B2 (TAIPEI MEDICAL UNIVERSITY, priority 2018, dated 2020).

With `C[C@]12CC[C@H]3[C@@H](CCC4=CC(=O)CC[C@@]43C)[C@@H]1CC[C@@H]2O` [Testosterone, testosterone, reference compound], in series [1], the “CLint (intrinsic clearance)” value is 0.0727 mL/min/mg Protein. As for `[2H]C([2H])([2H])Oc1cc2c(cc1OC([2H])([2H])[2H])C1CC(=O)C(CC(C)C)CN1CC2` (centres unmarked) [deutetrabenazine], in series [2], the “area under the curve (AUC)” value was 542 ng·h/mg and the t1/2 was 8.6 h. Consider `COc1cc2c(cc1OC)C1CC(=O)C(CC(C)C)CN1CC2` (centres unmarked) [tetrabenazine], for which, in series [2], the “area under the curve (AUC)” value was 261 ng·h/mg and the t1/2 is reported as 4.8 h.
